# From patent publication US11076594B2, “Pyrazolone compound or salt thereof, preparation method therefor, herbicide composition and use thereof” (QINGDAO KINGAGROOT CHEMICAL COMPOUNDS CO., LTD., priority 2015, dated 2021)
# Tests used:
# Format in all cases: in vivo
# wheat [1] = assay: wheat field test, crop selectivity, greenhouse spray at 4 leaf stage; conditions: 250 g/ha of the active substance; 4 weeks after treatment
# Protocol: (§1) The activity level standard of harmful plant destruction (i.e. growth control rate) is as follows:
# (§2) The above described growth control rate is fresh weight control rate.
# (§3) The seeds of alopecurus japonicas, flixweed, shepherd's purse, corn gromwell, chickweed, beckmannia syzigachne, and annual ryegrass and wheat seeds were put into a plastic pot loaded with soil, and then covered with 0.5-2 cm soil, the seeds were allowed to grow in good greenhouse environment. The test plants were treated at 4 leaf stage 2-3 weeks after sowing. The test compounds of the present invention were dissolved in acetone respectively, then added with methyl oleate emulsion and diluted by certain amount of water to certain concentration. The solution was sprayed to the plant with a sprayer. Then the plants were cultured for 4 weeks in greenhouse.
# shepherd's purse = assay: wheat field resistant broadleaf weed control, greenhouse spray at 4 leaf stage; parameters: key: Level 10: completely dead; Level 9: above 95% growth control rate; Level 8: above 90% growth control rate; Level 7: above 80% growth control rate; Level 6: above 70% growth control rate; Level 5: above 60% growth control rate; Level 4: above 50% growth control rate; Level 3: above 20% growth control rate; Level 2: 5%-20% growth control rate; Level 1: below 5% growth control rate; conditions: 250 g/ha of the active substance; 4 weeks after treatment; ALS inhibitor resistant
# Protocol: as §1, §2, §3
# corn gromwell = assay: as above; parameters: key: Level 10: completely dead; Level 9: above 95% growth control rate; Level 8: above 90% growth control rate; Level 7: above 80% growth control rate; Level 6: above 70% growth control rate; Level 5: above 60% growth control rate; Level 4: above 50% growth control rate; Level 3: above 20% growth control rate; Level 2: 5%-20% growth control rate; Level 1: below 5% growth control rate; conditions: 250 g/ha of the active substance; 4 weeks after treatment; ALS inhibitor resistant
# Protocol: as §1, §2, §3
# chickweed = assay: as above; parameters: key: Level 10: completely dead; Level 9: above 95% growth control rate; Level 8: above 90% growth control rate; Level 7: above 80% growth control rate; Level 6: above 70% growth control rate; Level 5: above 60% growth control rate; Level 4: above 50% growth control rate; Level 3: above 20% growth control rate; Level 2: 5%-20% growth control rate; Level 1: below 5% growth control rate; conditions: 250 g/ha of the active substance; 4 weeks after treatment; ALS inhibitor resistant
# Protocol: as §1, §2, §3
# flixweed = assay: as above; parameters: key: Level 10: completely dead; Level 9: above 95% growth control rate; Level 8: above 90% growth control rate; Level 7: above 80% growth control rate; Level 6: above 70% growth control rate; Level 5: above 60% growth control rate; Level 4: above 50% growth control rate; Level 3: above 20% growth control rate; Level 2: 5%-20% growth control rate; Level 1: below 5% growth control rate; conditions: 250 g/ha of the active substance; 4 weeks after treatment; ALS inhibitor resistant
# Protocol: as §1, §2, §3
# rice = assay: post-emergence stage experiment, crop (Table 1); conditions: post-emergence spray at 4-5 leaf stage, 250 g/ha active ingredient with 450 kg/ha water, rated after 3 weeks in greenhouse
# How it was run: (§4)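 Seeds were sown in pots, covered with 0.5-2 cm soil and grown in a greenhouse. At the 4-5 leaf stage, plants were sprayed with the test compound formulated in acetone, Tween 80 and water. Fresh weight control was rated after 3 weeks.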
# echinochloa = assay: weed control effect in post-emergence stage (Table 1); parameters: key: Level 10: completely dead; Level 9: above 95% growth control rate; Level 8: above 90% growth control rate; Level 7: above 80% growth control rate; Level 6: above 70% growth control rate; Level 5: above 60% growth control rate; Level 4: above 50% growth control rate; Level 3: above 20% growth control rate; Level 2: 5%-20% growth control rate; Level 1: below 5% growth control rate; conditions: post-emergence spray at 4-5 leaf stage, 250 g/ha active ingredient with 450 kg/ha water, rated after 3 weeks in greenhouse
# How it was run: as §4
# foxtail = assay: as above; parameters: key: Level 10: completely dead; Level 9: above 95% growth control rate; Level 8: above 90% growth control rate; Level 7: above 80% growth control rate; Level 6: above 70% growth control rate; Level 5: above 60% growth control rate; Level 4: above 50% growth control rate; Level 3: above 20% growth control rate; Level 2: 5%-20% growth control rate; Level 1: below 5% growth control rate; conditions: post-emergence spray at 4-5 leaf stage, 250 g/ha active ingredient with 450 kg/ha water, rated after 3 weeks in greenhouse
# How it was run: as §4
# Indian mallow = assay: as above; parameters: key: Level 10: completely dead; Level 9: above 95% growth control rate; Level 8: above 90% growth control rate; Level 7: above 80% growth control rate; Level 6: above 70% growth control rate; Level 5: above 60% growth control rate; Level 4: above 50% growth control rate; Level 3: above 20% growth control rate; Level 2: 5%-20% growth control rate; Level 1: below 5% growth control rate; conditions: post-emergence spray at 4-5 leaf stage, 250 g/ha active ingredient with 450 kg/ha water, rated after 3 weeks in greenhouse
# How it was run: as §4
# crab grass = assay: as above; parameters: key: Level 10: completely dead; Level 9: above 95% growth control rate; Level 8: above 90% growth control rate; Level 7: above 80% growth control rate; Level 6: above 70% growth control rate; Level 5: above 60% growth control rate; Level 4: above 50% growth control rate; Level 3: above 20% growth control rate; Level 2: 5%-20% growth control rate; Level 1: below 5% growth control rate; conditions: post-emergence spray at 4-5 leaf stage, 250 g/ha active ingredient with 450 kg/ha water, rated after 3 weeks in greenhouse
# How it was run: as §4
# rorippa indica = assay: as above; parameters: key: Level 10: completely dead; Level 9: above 95% growth control rate; Level 8: above 90% growth control rate; Level 7: above 80% growth control rate; Level 6: above 70% growth control rate; Level 5: above 60% growth control rate; Level 4: above 50% growth control rate; Level 3: above 20% growth control rate; Level 2: 5%-20% growth control rate; Level 1: below 5% growth control rate; conditions: post-emergence spray at 4-5 leaf stage, 250 g/ha active ingredient with 450 kg/ha water, rated after 3 weeks in greenhouse
# How it was run: as §4
# wheat [2] = assay: post-emergence stage experiment, crop (Table 1); conditions: post-emergence spray at 4-5 leaf stage, 250 g/ha active ingredient with 450 kg/ha water, rated after 3 weeks in greenhouse
# How it was run: as §4
# corn = assay: post-emergence stage experiment, crop (Table 1); conditions: post-emergence spray at 4-5 leaf stage, 250 g/ha active ingredient with 450 kg/ha water, rated after 3 weeks in greenhouse
# How it was run: as §4
# bidens bipinnata = assay: weed control effect in post-emergence stage (Table 1); parameters: key: Level 10: completely dead; Level 9: above 95% growth control rate; Level 8: above 90% growth control rate; Level 7: above 80% growth control rate; Level 6: above 70% growth control rate; Level 5: above 60% growth control rate; Level 4: above 50% growth control rate; Level 3: above 20% growth control rate; Level 2: 5%-20% growth control rate; Level 1: below 5% growth control rate; conditions: post-emergence spray at 4-5 leaf stage, 250 g/ha active ingredient with 450 kg/ha water, rated after 3 weeks in greenhouse
# How it was run: as §4
smiles,measurement,setting,value
CC(C)n1nc(C2CC2)c(C(=O)c2ccc(C(F)(F)F)c(N3CCCCC3=O)c2Cl)c1O [Compound 147],"Wheat (activity level, crop damage)",wheat [1],0
same,shepherd's purse weed controlling effect (activity level),shepherd's purse,10
same,corn gromwell weed controlling effect (activity level),corn gromwell,10
same,chickweed weed controlling effect (activity level),chickweed,9 (Level 9: above 95% growth control rate)
same,flixweed weed controlling effect (activity level),flixweed,10
Cc1cnn(-c2c(C(F)(F)F)ccc(C(=O)c3c(C4CC4)nn(C)c3OC(=O)c3cn(C)nc3C)c2Cl)c1 [Compound 090],"effect on crop, Rice (level)",rice,2 (Level 2: 5%-20% growth control rate)
same,"weed control effect, Echinochloa (level)",echinochloa,6 (Level 6: above 70% growth control rate)
same,"weed control effect, Green foxtail (level)",foxtail,2 (Level 2: 5%-20% growth control rate)
same,"weed control effect, Indian mallow (level)",Indian mallow,10
same,"weed control effect, Crab grass (level)",crab grass,1 (Level 1: below 5% growth control rate)
same,"weed control effect, Rorippa indica (level)",rorippa indica,10
same,"Wheat (activity level, crop damage)",wheat [1],0
same,"effect on crop, Wheat (level)",wheat [2],0
same,"effect on crop, Corn (level)",corn,1 (Level 1: below 5% growth control rate)
same,shepherd's purse weed controlling effect (activity level),shepherd's purse,10
same,corn gromwell weed controlling effect (activity level),corn gromwell,10
same,chickweed weed controlling effect (activity level),chickweed,10
same,flixweed weed controlling effect (activity level),flixweed,10
CC(=O)N(CC(F)F)c1c(C(F)(F)F)ccc(C(=O)c2c(C)nn(C)c2O)c1Cl [Compound 005],"effect on crop, Rice (level)",rice,7 (Level 7: above 80% growth control rate)
same,"weed control effect, Echinochloa (level)",echinochloa,10
same,"weed control effect, Bidens bipinnata (level)",bidens bipinnata,10
same,"weed control effect, Green foxtail (level)",foxtail,5 (Level 5: above 60% growth control rate)
same,"weed control effect, Indian mallow (level)",Indian mallow,10
same,"weed control effect, Crab grass (level)",crab grass,2 (Level 2: 5%-20% growth control rate)
same,"weed control effect, Rorippa indica (level)",rorippa indica,10
same,"Wheat (activity level, crop damage)",wheat [1],0
same,"effect on crop, Wheat (level)",wheat [2],0
same,shepherd's purse weed controlling effect (activity level),shepherd's purse,10
same,corn gromwell weed controlling effect (activity level),corn gromwell,10
same,chickweed weed controlling effect (activity level),chickweed,10
same,flixweed weed controlling effect (activity level),flixweed,10
O=C(c1ccc(C(F)(F)F)c(N2CCCCC2=O)c1Cl)c1c(C2CC2)nn(C2CC2)c1O [Compound 148],"Wheat (activity level, crop damage)",wheat [1],1 (Level 1: below 5% growth control rate)
same,shepherd's purse weed controlling effect (activity level),shepherd's purse,10
same,corn gromwell weed controlling effect (activity level),corn gromwell,10
same,chickweed weed controlling effect (activity level),chickweed,10
same,flixweed weed controlling effect (activity level),flixweed,10
Cc1cnn(-c2c(C(F)(F)F)ccc(C(=O)c3c(C)nn(C)c3OC(=O)c3cn(C)nc3C)c2Cl)c1 [Compound 088],"weed control effect, Echinochloa (level)",echinochloa,10
same,"weed control effect, Bidens bipinnata (level)",bidens bipinnata,4 (Level 4: above 50% growth control rate)
same,"weed control effect, Green foxtail (level)",foxtail,10
same,"weed control effect, Indian mallow (level)",Indian mallow,10
same,"weed control effect, Crab grass (level)",crab grass,9 (Level 9: above 95% growth control rate)
same,"weed control effect, Rorippa indica (level)",rorippa indica,10
same,"Wheat (activity level, crop damage)",wheat [1],0
same,"effect on crop, Wheat (level)",wheat [2],0
same,"effect on crop, Corn (level)",corn,0
same,shepherd's purse weed controlling effect (activity level),shepherd's purse,10
same,corn gromwell weed controlling effect (activity level),corn gromwell,10
same,chickweed weed controlling effect (activity level),chickweed,10
same,flixweed weed controlling effect (activity level),flixweed,10
Cc1nn(C)cc1C(=O)Oc1c(C(=O)c2ccc(C(F)(F)F)c(-n3cccn3)c2Cl)cnn1C [Compound 067],"effect on crop, Rice (level)",rice,3 (Level 3: above 20% growth control rate)
same,"weed control effect, Echinochloa (level)",echinochloa,7 (Level 7: above 80% growth control rate)
same,"weed control effect, Green foxtail (level)",foxtail,10
same,"weed control effect, Indian mallow (level)",Indian mallow,10
same,"weed control effect, Crab grass (level)",crab grass,7 (Level 7: above 80% growth control rate)
same,"weed control effect, Rorippa indica (level)",rorippa indica,10
same,"Wheat (activity level, crop damage)",wheat [1],0
same,"effect on crop, Wheat (level)",wheat [2],0
same,"effect on crop, Corn (level)",corn,3 (Level 3: above 20% growth control rate)
same,shepherd's purse weed controlling effect (activity level),shepherd's purse,10
same,corn gromwell weed controlling effect (activity level),corn gromwell,10
same,chickweed weed controlling effect (activity level),chickweed,10
same,flixweed weed controlling effect (activity level),flixweed,10
Cc1nn(C)cc1C(=O)Oc1c(C(=O)c2ccc(C(F)(F)F)c(-n3cccn3)c2Cl)c(C)nn1C [Compound 072],"effect on crop, Rice (level)",rice,4 (Level 4: above 50% growth control rate)
same,"weed control effect, Echinochloa (level)",echinochloa,6 (Level 6: above 70% growth control rate)
same,"weed control effect, Green foxtail (level)",foxtail,10
same,"weed control effect, Indian mallow (level)",Indian mallow,10
same,"weed control effect, Crab grass (level)",crab grass,4 (Level 4: above 50% growth control rate)
same,"weed control effect, Rorippa indica (level)",rorippa indica,10
same,"Wheat (activity level, crop damage)",wheat [1],0
same,"effect on crop, Wheat (level)",wheat [2],0
same,"effect on crop, Corn (level)",corn,3 (Level 3: above 20% growth control rate)
same,shepherd's purse weed controlling effect (activity level),shepherd's purse,10
same,corn gromwell weed controlling effect (activity level),corn gromwell,10
same,chickweed weed controlling effect (activity level),chickweed,10
same,flixweed weed controlling effect (activity level),flixweed,10
